Reference: patent US12090225B2 (Avalyn Pharma Inc., priority 2018, dated 2024)
Read-outs that look alike come from different tables or passages of the source. Blank lines part the entries; values can stand above or below the molecule they belong to.

Tests used:
[1] = Apparent solubility of nintedanib HBr laboratory scale batches; format: physicochemical
Excerpt: During this process, a new polymorphic form was identified (pattern X)

[2] = Pattern stability screen of potential salts (40° C./75% RH, XRPD); format: physicochemical
[3] = Aqueous solubility assessment of salts; format: physicochemical
[4] = Human inhaled dose projection vs Ofev 150 mg oral; details: 0.42 mg inhaled vs Ofev 150 mg oral
[5] = pH-solubility of nintedanib HBr Pattern 4 and Pattern X; format: physicochemical; details: distilled water, over 48 hours, UV/vis 390 nm, unit assumed
Method: The solubility of Pattern 4 and Pattern X at various pH values were determined by UV/vis spectrophotometry. Excess Pattern 4 and Pattern X HBr salts were added to distilled water, vortexed at high speed and the pH was adjusted to the target value by adding 1N HCl or 1N NaOH. The test solutions were mixed on a magnetic stirrer for over 48 hours, then filtered through a 0.22 μm nylon membrane syringe filter and analyzed by uv/vis spectrophotometry at 390 nm. […] The solubility of both polymorphic forms decreases with increasing pH. Both polymorphic forms have similar solubility profile.

[6] = Temperature-solubility of nintedanib HBr Pattern 4 and Pattern X; format: physicochemical; details: distilled water, over 48 hours
Method: During this time period, the samples were periodically taken out of the storage, vortexed, and returned to storage condition. At the end of the incubation period, the test solutions were filtered through a 0.22 μm nylon membrane syringe filter and analyzed by uv/vis spectrophotometry (at 390 nm) for drug concentration. Table 29 summarizes the solubility of both salt forms as a function of temperature. The solubility of both polymorphic forms increases with increasing temperature. Both polymorphic forms have similar solubility profiles.

[7] = Inhaled pharmacokinetics of nintedanib salt forms (intratracheal); format: in vivo, C57BL/6 mice; details: C57BL/6 mice; for AUC 0-last / Elimination half-life (alpha-phase): 1.0 mg/kg IT; for Cmax: 1.0 mg/kg IT (base equivalent)
[8] = Dynamic Vapour Sorption (DVS) hygroscopicity; format: physicochemical; details: for DVS mass uptake at 90% RH: 25° C., uptake from input material; for Hygroscopicity: DVS
Method: Dynamic Vapour Sorption (DVS). Approximately, 10 mg of sample was placed into a mesh vapour sorption balance pan and loaded into a DVS-1 or DVS Advantage dynamic vapour sorption balance by Surface Measurement Systems. The sample was subjected to a ramping profile from 40-90% relative humidity (RH) at 10% increments, maintaining the sample at each step until a stable weight had been achieved (dm/dt 0.004%, minimum step length 30 minutes, maximum step length 500 minutes) at 25° C. After completion of the sorption cycle, the sample was dried using the same procedure to 0% RH and then a second sorption cycle back to 40% RH. Two cycles were performed. The weight change during the sorption/desorption cycles were plotted, allowing for the hygroscopic nature of the sample to be determined. XRPD analysis was then carried out on any solid retained.

[9] = 7 day stability testing of salts (40° C./75% RH, 80° C., ambient light; HPLC purity, XRPD); format: physicochemical; details: for XRPD pattern after 7 day stability testing: listed as phosphate salt
Method: High Performance Liquid Chromatography-Ultraviolet Detection (HPLC-UV): Instrument: Dionex Ultimate 3000; Column: Acquity CSH C18 100 mm×2.1 mm 1.7 μm; Column Temperature: 50° C.; Autosampler Temperature: Ambient; UV wavelength: 210 nm; Injection Volume: 4 μL; Flow Rate: 0.6 mL/min; Mobile Phase A: 0.1% formic acid in water; Mobile Phase B: 0.1% formic acid in acetonitrile. The HPLC method used the gradient in Table 2.
FT-IR appeared to be consistent with the structure. […] The material was physically stable to changes in temperature and humidity when stored for one week.
A new, poorly crystalline pattern was produced when stored at 40° C./75% RH—Pattern 4.
Purity of these materials remained unchanged (as shown in Table) apart from the sample stored at ambient light, where a 0.5% drop in purity was observed.

[10] = Disproportionation/hydration studies (pH, XRPD pattern); format: physicochemical
Excerpt: No XRPD data could be compiled on the hydration or disproportionation of the salt due to the high solubility in water and acetone/water mixtures.
The salt only remained Pattern 1 at 0.3 aw. New patterns 6 and 7 are likely hydrated due to the high water activity conditions for production.

[11] = Inhaled pharmacokinetics of fixed combination nintedanib esylate and pirfenidone; format: in vivo, C57BL/6 mice; details: 10.0 mg/kg each IT; for half-life: read-out: Elimination half-life (alpha-phase)
Method: Plasma and lung tissue samples were taken 2, 5, 10, 20, 40 min and 1, 2, and 4 hours post dose. Nintedanib was extracted and quantitated as μg/mL plasma and μg/gram lung tissue.

[12] = Water Activity 0.3 (acetone/water)
[13] = Water Activity 0.6 (acetone/water)
[14] = Water Activity 0.9 (acetone/water)
[15] = female, C57BL/6, mouse, inhaled or intranasal, Lung (whole lung homogenate)
[16] = female, C57BL/6, mouse, inhaled or intranasal, Plasma

- Apparent Solubility [1]: 2040 µg/mL
Molecule: Br.COC(=O)c1ccc2c(c1)NC(=O)C2=C(Nc1ccc(N(C)C(=O)CN2CCN(C)CC2)cc1)c1ccccc1 [AP018]

- Apparent Solubility [1]: 970 µg/mL
Molecule: Br.COC(=O)c1ccc2c(c1)NC(=O)C2=C(Nc1ccc(N(C)C(=O)CN2CCN(C)CC2)cc1)c1ccccc1 [AP036]

- Apparent Solubility [1]: 1960 µg/mL
Molecule: Br.COC(=O)c1ccc2c(c1)NC(=O)C2=C(Nc1ccc(N(C)C(=O)CN2CCN(C)CC2)cc1)c1ccccc1 [AP064]

- Apparent Solubility [1]: 1020 µg/mL
Molecule: Br.COC(=O)c1ccc2c(c1)NC(=O)C2=C(Nc1ccc(N(C)C(=O)CN2CCN(C)CC2)cc1)c1ccccc1 [AP069]

Molecule: Br.COC(=O)c1ccc2c(c1)NC(=O)/C2=C(\Nc1ccc(N(C)C(=O)CN2CCN(C)CC2)cc1)c1ccccc1 [AP143]
- Apparent Solubility [1]: 960 µg/mL

- Apparent Solubility [1]: 1950 µg/mL
Molecule: Br.COC(=O)c1ccc2c(c1)NC(=O)C2=C(Nc1ccc(N(C)C(=O)CN2CCN(C)CC2)cc1)c1ccccc1 [AP152]

- Apparent Solubility [1]: 2050 µg/mL
Molecule: Br.COC(=O)c1ccc2c(c1)NC(=O)C2=C(Nc1ccc(N(C)C(=O)CN2CCN(C)CC2)cc1)c1ccccc1 [AP177d]

- Apparent Solubility [1]: 1030 µg/mL
Molecule: Br.COC(=O)c1ccc2c(c1)NC(=O)C2=C(Nc1ccc(N(C)C(=O)CN2CCN(C)CC2)cc1)c1ccccc1 [AP177w]

- Apparent Solubility [1]: 1940 µg/mL
Molecule: Br.COC(=O)c1ccc2c(c1)NC(=O)C2=C(Nc1ccc(N(C)C(=O)CN2CCN(C)CC2)cc1)c1ccccc1 [AP178d]

- Apparent Solubility [1]: 1010 µg/mL
Molecule: Br.COC(=O)c1ccc2c(c1)NC(=O)C2=C(Nc1ccc(N(C)C(=O)CN2CCN(C)CC2)cc1)c1ccccc1 [AP178w]

- XRPD pattern after 72 hrs 40° C./75% RH ([2]; Initial pattern 1): 1(FB)
- XRPD pattern after 72 hrs 40° C./75% RH ([2]; Initial pattern 2): 1
Molecule: CC(=O)O [Acetate]

- XRPD pattern after 72 hrs 40° C./75% RH ([2]; Initial pattern 1): 1
- XRPD pattern after 72 hrs 40° C./75% RH ([2]; Initial pattern 2): 2(MU)
- pH (aqueous solubility measurement) ([3]; primary screen samples): 6.41
Molecule: O=C(O)/C=C/C(=O)O [Fumarate]

Molecule: COC(=O)c1ccc2c(c1)NC(=O)/C2=C(\Nc1ccc(N(C)C(=O)CN2CCN(C)CC2)cc1)c1ccccc1.O=S(=O)(O)CCO [HESA]
- XRPD pattern after 72 hrs 40° C./75% RH ([2]; Initial pattern 1): 2
- XRPD pattern after 72 hrs 40° C./75% RH ([2]; Initial pattern 2): 2

Molecule: COC(=O)c1ccc2c(c1)NC(=O)/C2=C(\Nc1ccc(N(C)C(=O)CN2CCN(C)CC2)cc1)c1ccccc1 [Inhaled nintedanib]
- % Pharmacokinetics (inhaled compared to oral), AUC ([4]; lung): 1047%
- % Pharmacokinetics (inhaled compared to oral), Cmax ([4]; lung): 2600%
- % Pharmacokinetics (inhaled compared to oral), AUC ([4]; plasma): 100%
- % Pharmacokinetics (inhaled compared to oral), Cmax ([4]; plasma): 83%

- XRPD pattern after 72 hrs 40° C./75% RH ([2]; Initial pattern 1): 1
Molecule: N[C@@H](CC(=O)O)C(=O)O [L-Aspartic acid]

Molecule: COC(=O)c1ccc2c(c1)NC(=O)/C2=C(\Nc1ccc(N(C)C(=O)CN2CCN(C)CC2)cc1)c1ccccc1.CS(=O)(=O)O [MSA]
- XRPD pattern after 72 hrs 40° C./75% RH ([2]; Initial pattern 1): 1
- XRPD pattern after 72 hrs 40° C./75% RH ([2]; Initial pattern 2): 1

Molecule: Br.COC(=O)c1ccc2c(c1)NC(=O)/C2=C(\Nc1ccc(N(C)C(=O)CN2CCN(C)CC2)cc1)c1ccccc1 [Nintedanib HBr Pattern 4, Nintedanib hydrobromide, XRPD Pattern 4]
- solubility ([5]; pH 3.1): 2010 µg/mL
- solubility ([5]; pH 3.9): 1470 µg/mL
- solubility ([5]; pH 4.7): 1380 µg/mL
- solubility ([5]; pH 5.3): 1070 µg/mL
- Nintedanib HBr Solubility ([6]; 5° C.): 790 µg/mL
- Nintedanib HBr Solubility ([6]; 22° C.): 1380 µg/mL
- Nintedanib HBr Solubility ([6]; 40° C.): 3200 µg/mL

Molecule: Br.COC(=O)c1ccc2c(c1)NC(=O)/C2=C(\Nc1ccc(N(C)C(=O)CN2CCN(C)CC2)cc1)c1ccccc1 [Nintedanib HBr Pattern X, Nintedanib hydrobromide, XRPD Pattern X]
- solubility ([5]; pH 3.1): 1860 µg/mL
- solubility ([5]; pH 3.9): 1720 µg/mL
- solubility ([5]; pH 4.4): 1490 µg/mL
- solubility ([5]; pH 5.1): 1400 µg/mL
- Nintedanib HBr Solubility ([6]; 5° C.): 650 µg/mL
- Nintedanib HBr Solubility ([6]; 22° C.): 1490 µg/mL
- Nintedanib HBr Solubility ([6]; 40° C.): 3410 µg/mL

Molecule: Br.COC(=O)c1ccc2c(c1)NC(=O)/C2=C(\Nc1ccc(N(C)C(=O)CN2CCN(C)CC2)cc1)c1ccccc1 [Nintedanib bromide]
- AUC 0-last ([7]; lung (whole lung homogenate)): 51.2 mg·h/kg
- Elimination half-life (alpha-phase) ([7]; lung (whole lung homogenate)): 4.1 min
- Cmax ([7]; plasma): 200 ng/mL
- AUC 0-last ([7]; plasma): 200 ng·h/mL
- Elimination half-life (alpha-phase) ([7]; plasma): 2.4 min

Molecule: COC(=O)c1ccc2c(c1)NC(=O)/C2=C(\Nc1ccc(N(C)C(=O)CN2CCN(C)CC2)cc1)c1ccccc1.Cl [Nintedanib chloride]
- AUC 0-last ([7]; lung (whole lung homogenate)): 60.1 mg·h/kg
- Elimination half-life (alpha-phase) ([7]; lung (whole lung homogenate)): 3.9 min
- Cmax ([7]; plasma): 400 ng/mL
- AUC 0-last ([7]; plasma): 200 ng·h/mL
- Elimination half-life (alpha-phase) ([7]; plasma): 1.7 min

Molecule: COC(=O)c1ccc2c(c1)NC(=O)/C2=C(\Nc1ccc(N(C)C(=O)CN2CCN(C)CC2)cc1)c1ccccc1.O=P(O)(O)O.O=P(O)(O)O [Phosphate]
- DVS mass uptake at 90% RH [8]: further 10.6% uptake up
- DVS mass uptake at 90% RH ([8]; listed as phosphate salt): ca. 10.6%
- Hygroscopicity [8]: Hygroscopic
- Hygroscopicity ([8]; listed as phosphate salt): hygroscopic
- XRPD pattern after 72 hrs 40° C./75% RH ([2]; Initial pattern 1): 1
- XRPD pattern after 72 hrs 40° C./75% RH ([2]; Initial pattern 2): 2
- Purity (%) ([9]; 40° C./75% RH, 7 day stability testing): 99.8%
- XRPD pattern after 7 day stability testing ([9]; 40° C./75% RH): Pattern 4
- XRPD pattern after 7 day stability testing ([9]; 80° C. and ambient conditions/light): remain Pattern 3
- Purity (%) ([9]; 80° C., 7 day stability testing): 99.2%
- Purity (%) ([9]; Ambient, 7 day stability testing): 99.6%
- Purity (%) ([9]; Input): 99.9%
- pH Post-Agitation [10, 12]: 2.68
- pH Pre-Agitation [10, 12]: 3.08
- pH Post-Agitation [10, 13]: 2.52
- pH Pre-Agitation [10, 13]: 2.60
- pH Post-Agitation [10, 14]: 2.35
- pH Pre-Agitation [10, 14]: 2.34
- pH Post-Agitation ([10]; Water Activity 1.0 (water)): 1.78
- pH Pre-Agitation ([10]; Water Activity 1.0 (water)): 2.75
- pH at 6 h ([3]; salt in water, after agitation): 3.00
- pH at 18 h ([3]; salt in water, after agitation): 2.11
- Initial pH ([3]; salt in water, solubility assessment): 3.43

- AUC 0-last ([11]; Lung (whole lung homogenate)): 5.2 mg·h/kg
- Cmax [11, 15]: 279000 ng/g
- half-life [11, 15]: 0.7 min
- AUC(0-t) [11, 16]: 3800 ng·h/mL
- Cmax [11, 16]: 7900 ng/mL
- half-life [11, 16]: 8.9 min
Molecule: Cc1ccc(=O)n(-c2ccccc2)c1 [Pirfenidone]

Molecule: O=S(=O)(O)O [Sulfuric acid]
- XRPD pattern after 72 hrs 40° C./75% RH ([2]; Initial pattern 1): 1
- XRPD pattern after 72 hrs 40° C./75% RH ([2]; Initial pattern 2): 1
- XRPD pattern after 72 hrs 40° C./75% RH ([2]; Initial pattern 3): 3
- XRPD pattern after 72 hrs 40° C./75% RH ([2]; Initial pattern 4): 3

- XRPD pattern after 72 hrs 40° C./75% RH ([2]; Initial pattern 1): 1
- XRPD pattern after 72 hrs 40° C./75% RH ([2]; Initial pattern 2): 2
Molecule: Maleic acid

- XRPD pattern after 72 hrs 40° C./75% RH ([2]; Initial pattern 1): 2
- XRPD pattern after 72 hrs 40° C./75% RH ([2]; Initial pattern 2): 2
- Solubility (aqueous) [3]: <625 µg/mL
- pH (aqueous solubility measurement) [3]: 5.51
Molecule: Saccharin
